Reference: PubChem BioAssay AID248 (DTP/NCI, 2004)
Values joined by “and” are separate entries in the source; they are usually repeats but may differ in a detail not shown here. Equal entries are not always repeated. Toxic doses and inconclusive results are not listed. Cut-off read from the data, not from the text of the source: active = T/C of 150% or more; inactive = T/C below 125%.

Test system: L1210 leukemia ip in BDF1 mice, survival T/C
Assay: NCI In Vivo Anticancer Drug Screen. Data for tumor model L1210 Leukemia (intraperitoneal) in B6D2F1 (BDF1) mice
Details: higher = longer survival
In short: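 Transplanted-tumor mice were given test agent; controls received vehicle only. Survival readings from the two groups were divided (treated over control).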

[1] = endpoint: mean survival time, dose: 100.0 mg/kg/injection, schedule: Q01DX009 (ip), vehicle: Klucel (hydroxypropylcellulose) (HPC)
[2] = endpoint: mean survival time, dose: 200.0 mg/kg/injection, schedule: Q01DX009 (ip), vehicle: Klucel (hydroxypropylcellulose) (HPC)
[3] = endpoint: mean survival time, dose: 400.0 mg/kg/injection, schedule: Q01DX009 (ip), vehicle: Klucel (hydroxypropylcellulose) (HPC)
[4] = endpoint: mean survival time, dose: 100.0 mg/kg/injection, schedule: Q04DX003 (ip), vehicle: saline with Tween-80
[5] = endpoint: mean survival time, dose: 200.0 mg/kg/injection, schedule: Q04DX003 (ip), vehicle: saline with Tween-80
[6] = endpoint: mean survival time, dose: 400.0 mg/kg/injection, schedule: Q04DX003 (ip), vehicle: saline with Tween-80
[7] = endpoint: mean survival time, dose: 100.0 mg/kg/injection, schedule: Q04DX003 (ip), vehicle: Klucel (hydroxypropylcellulose) (HPC)
[8] = endpoint: mean survival time, dose: 200.0 mg/kg/injection, schedule: Q04DX003 (ip), vehicle: Klucel (hydroxypropylcellulose) (HPC)
[9] = endpoint: mean survival time, dose: 400.0 mg/kg/injection, schedule: Q04DX003 (ip), vehicle: Klucel (hydroxypropylcellulose) (HPC)
[10] = endpoint: mean survival time, dose: 100.0 mg/kg/injection, schedule: Q01DX001 (ip), vehicle: other
[11] = endpoint: mean survival time, dose: 200.0 mg/kg/injection, schedule: Q01DX001 (ip), vehicle: other
[12] = endpoint: mean survival time, dose: 100.0 mg/kg/injection, schedule: Q01DX001 (ip), vehicle: saline
[13] = endpoint: mean survival time, dose: 200.0 mg/kg/injection, schedule: Q01DX001 (ip), vehicle: saline
[14] = endpoint: mean survival time, dose: 400.0 mg/kg/injection, schedule: Q01DX001 (ip), vehicle: saline

Measured: T/C

CS(=O)(=O)OCCC(COS(C)(=O)=O)S(=O)(=O)CCCOc1ccccc1-c1ccccc1 (stereo unspecified)
inactive: endpoint: mean survival time, dose: 50.0 mg/kg/injection, schedule: Q01DX009 (ip), vehicle: saline with Tween-80 94 % of control | endpoint: mean survival time, dose: 100.0 mg/kg/injection, schedule: Q01DX009 (ip), vehicle: saline with Tween-80 94 % of control | endpoint: mean survival time, dose: 200.0 mg/kg/injection, schedule: Q01DX009 (ip), vehicle: saline with Tween-80 94 % of control

Cc1cc(OCCOC(=O)Nc2ccccc2F)ccc1Cl
inactive: [1] 107 % of control | [2] 102 % of control | [3] 112 % of control

CC1(C)C2CCC1(C)C(OC(=O)C1OC(O)C(O)C(O)C1O)C2 (stereo unspecified)
inactive: [4] 102 % of control | [5] 104 % of control | [6] 102 % of control

CCCCCCC(=O)O[C@H]1CC[C@H]2[C@@H]3CCC4=CC(=O)CC[C@]4(C)[C@H]3CC[C@]12C
inactive: endpoint: median survival time, dose: 2.0 mg/kg/injection, schedule: Q04DX024 (ip), vehicle: other 94 % of control | endpoint: median survival time, dose: 4.0 mg/kg/injection, schedule: Q01DX016 (ip), vehicle: other 92 % of control | endpoint: median survival time, dose: 4.0 mg/kg/injection, schedule: Q04DX024 (ip), vehicle: other 94 % of control | endpoint: median survival time, dose: 8.0 mg/kg/injection, schedule: Q01DX008 (ip), vehicle: other 95 % of control | endpoint: median survival time, dose: 8.0 mg/kg/injection, schedule: Q01DX009 (ip), vehicle: other 98 % of control | endpoint: median survival time, dose: 8.0 mg/kg/injection, schedule: Q01DX016 (ip), vehicle: other 92 % of control | endpoint: median survival time, dose: 8.0 mg/kg/injection, schedule: Q04DX024 (ip), vehicle: other 91 % of control | endpoint: median survival time, dose: 16.0 mg/kg/injection, schedule: Q01DX008 (ip), vehicle: other 95 % of control | endpoint: median survival time, dose: 16.0 mg/kg/injection, schedule: Q01DX009 (ip), vehicle: other 97 % of control | endpoint: median survival time, dose: 16.0 mg/kg/injection, schedule: Q01DX016 (ip), vehicle: other 90 % of control | endpoint: median survival time, dose: 16.0 mg/kg/injection, schedule: Q04DX003 (ip), vehicle: other 98 % of control | endpoint: median survival time, dose: 16.0 mg/kg/injection, schedule: Q04DX024 (ip), vehicle: other 94 % of control | endpoint: median survival time, dose: 32.0 mg/kg/injection, schedule: Q01DX008 (ip), vehicle: other 112 % of control | endpoint: median survival time, dose: 32.0 mg/kg/injection, schedule: Q01DX009 (ip), vehicle: other 111 % of control | endpoint: median survival time, dose: 32.0 mg/kg/injection, schedule: Q01DX016 (ip), vehicle: other 95 % of control | endpoint: median survival time, dose: 32.0 mg/kg/injection, schedule: Q04DX003 (ip), vehicle: other 100 % of control | endpoint: median survival time, dose: 32.0 mg/kg/injection, schedule: Q04DX024 (ip), vehicle: other 92 % of control | endpoint: median survival time, dose: 32.0 mg/kg/injection, schedule: Q08DX002 (ip), vehicle: other 102 % of control | endpoint: median survival time, dose: 64.0 mg/kg/injection, schedule: Q01DX001 (ip), vehicle: other 98 % of control | endpoint: median survival time, dose: 64.0 mg/kg/injection, schedule: Q01DX008 (ip), vehicle: other 91 % of control | endpoint: median survival time, dose: 64.0 mg/kg/injection, schedule: Q01DX009 (ip), vehicle: other 92 % of control | endpoint: median survival time, dose: 64.0 mg/kg/injection, schedule: Q01DX016 (ip), vehicle: other 89 % of control | endpoint: median survival time, dose: 64.0 mg/kg/injection, schedule: Q04DX003 (ip), vehicle: other 107 % of control | endpoint: median survival time, dose: 64.0 mg/kg/injection, schedule: Q08DX002 (ip), vehicle: other 98 % of control | endpoint: median survival time, dose: 128.0 mg/kg/injection, schedule: Q01DX001 (ip), vehicle: other 104 % of control | endpoint: median survival time, dose: 128.0 mg/kg/injection, schedule: Q01DX009 (ip), vehicle: other 97 % of control | endpoint: median survival time, dose: 128.0 mg/kg/injection, schedule: Q04DX003 (ip), vehicle: other 101 % of control | endpoint: median survival time, dose: 128.0 mg/kg/injection, schedule: Q08DX002 (ip), vehicle: other 101 % of control | endpoint: median survival time, dose: 256.0 mg/kg/injection, schedule: Q01DX001 (ip), vehicle: other 122 % of control | endpoint: median survival time, dose: 256.0 mg/kg/injection, schedule: Q01DX009 (ip), vehicle: other 106 % of control | endpoint: median survival time, dose: 256.0 mg/kg/injection, schedule: Q04DX003 (ip), vehicle: other 102 % of control | endpoint: median survival time, dose: 256.0 mg/kg/injection, schedule: Q08DX002 (ip), vehicle: other 104 % of control | endpoint: median survival time, dose: 512.0 mg/kg/injection, schedule: Q01DX001 (ip), vehicle: other 101 % of control | endpoint: median survival time, dose: 512.0 mg/kg/injection, schedule: Q08DX002 (ip), vehicle: other 106 % of control

C=CCN(CC=C)CC=C
inactive: endpoint: mean survival time, dose: 25.0 mg/kg/injection, schedule: Q01DX009 (ip), vehicle: saline 100 % of control | endpoint: mean survival time, dose: 50.0 mg/kg/injection, schedule: Q01DX009 (ip), vehicle: saline 97 % of control | endpoint: mean survival time, dose: 100.0 mg/kg/injection, schedule: Q01DX009 (ip), vehicle: saline 100 % of control

ClCCCCCCCCCCCl
inactive: [1] 94 % of control and 97 % of control | [7] 97 % of control | [2] 94 % of control and 102 % of control | [8] 92 % of control | [3] 92 % of control | [9] 99 % of control

CC1=C(C)CP(C)(=O)C1
inactive: [4] 93 % of control | [5] 91 % of control | [6] 86 % of control

CC(Oc1ccccc1)C(=O)NC(=S)Nc1cc(Cl)ccc1Cl (stereo unspecified)
inactive: [10] 93 % of control | endpoint: mean survival time, dose: 100.0 mg/kg/injection, schedule: Q01DX009 (ip), vehicle: other 94 % of control and 89 % of control | endpoint: mean survival time, dose: 100.0 mg/kg/injection, schedule: Q04DX002 (ip), vehicle: other 119 % of control and 90 % of control | [11] 88 % of control | endpoint: mean survival time, dose: 200.0 mg/kg/injection, schedule: Q01DX009 (ip), vehicle: other 96 % of control and 89 % of control | endpoint: mean survival time, dose: 200.0 mg/kg/injection, schedule: Q04DX002 (ip), vehicle: other 94 % of control and 102 % of control | endpoint: mean survival time, dose: 400.0 mg/kg/injection, schedule: Q01DX009 (ip), vehicle: other 88 % of control | endpoint: mean survival time, dose: 400.0 mg/kg/injection, schedule: Q04DX002 (ip), vehicle: other 102 % of control

O=S=Nc1cc(Cl)c(Cl)cc1Cl
inactive: endpoint: mean survival time, dose: 25.0 mg/kg/injection, schedule: Q04DX002 (ip), vehicle: saline 103 % of control | endpoint: mean survival time, dose: 50.0 mg/kg/injection, schedule: Q04DX002 (ip), vehicle: saline 100 % of control | endpoint: mean survival time, dose: 100.0 mg/kg/injection, schedule: Q04DX002 (ip), vehicle: saline 95 % of control and 109 % of control

O=[N+]([O-])c1ccc(SCc2ccc(Br)cc2)c([N+](=O)[O-])c1
inactive: endpoint: mean survival time, dose: 100.0 mg/kg/injection, schedule: Q01DX001 (ip), vehicle: carboxymethylcellulose (CMC) 98 % of control | endpoint: mean survival time, dose: 200.0 mg/kg/injection, schedule: Q01DX001 (ip), vehicle: carboxymethylcellulose (CMC) 104 % of control | endpoint: mean survival time, dose: 400.0 mg/kg/injection, schedule: Q01DX001 (ip), vehicle: carboxymethylcellulose (CMC) 95 % of control

Cc1cc(N=Nc2ccc(N(C)C)cc2)ccn1
inactive: [7] 101 % of control | [8] 102 % of control | [9] 91 % of control

CC(=O)OC1=C(CC(C)C)C(=O)c2ccccc2C1=O
inactive: [12] 104 % of control | [13] 107 % of control | [14] 103 % of control

CSc1ccc(NC(=O)Nc2cc(C)ccc2Cl)cc1
inactive: [1] 86 % of control | [2] 93 % of control | [3] 88 % of control

CCCC(CCN1CCCC1)(CNC(=O)CN(CC)CC)c1cccc2ccccc12 (stereo unspecified)
inactive: endpoint: mean survival time, dose: 25.0 mg/kg/injection, schedule: Q04DX003 (ip), vehicle: saline 103 % of control | endpoint: mean survival time, dose: 50.0 mg/kg/injection, schedule: Q04DX003 (ip), vehicle: saline 104 % of control | endpoint: mean survival time, dose: 100.0 mg/kg/injection, schedule: Q04DX003 (ip), vehicle: saline 106 % of control

CN(C)/N=N\c1nc[nH]c1C(=O)NN
inactive: endpoint: mean survival time, dose: 50.0 mg/kg/injection, schedule: Q01DX001 (ip), vehicle: saline 107 % of control | [12] 101 % of control | [13] 107 % of control | [14] 110 % of control

CC(C)(CO)NCc1ccccc1F
inactive: endpoint: mean survival time, dose: 75.0 mg/kg/injection, schedule: Q01DX001 (ip), vehicle: saline 103 % of control | endpoint: mean survival time, dose: 150.0 mg/kg/injection, schedule: Q01DX001 (ip), vehicle: saline 104 % of control | endpoint: mean survival time, dose: 300.0 mg/kg/injection, schedule: Q01DX001 (ip), vehicle: saline 98 % of control

CN(/N=N/c1nc[nH]c1C(=O)NN)C1CCCCC1
inactive: endpoint: mean survival time, dose: 50.0 mg/kg/injection, schedule: Q01DX001 (ip), vehicle: other 95 % of control | [10] 101 % of control | [11] 98 % of control
